According to US20040147562A1, “Methods of treating conditions associated with an EDG-1 receptor” (priority 2002, published 2004):
Where two headings read alike, the source gives them in different places.

Legend:
human Edg-1 receptors [1] = molecular target: human Edg-1 receptors (Homo sapiens, UniProt P21453); test: Intracellular calcium (FLIPR) assay, HTC cells expressing Edg-1; assay type: cell-based; design: Edg 1 IC50 μM; fused on or other part: in the chimera reading: the third intracellular loop (i3) of Edg-3 (S1PR3) in place of Edg-1's own
Description: (§1) The compounds were tested in HTC cells expressing human Edg-1 receptors. […] The compounds were tested in this recombinant system first, and subsequently tested in cell lines expressing Edg-1 (in addition to other Edg receptors).
(§2) […] receptors such as Edg-1, couple to calcium effector pathways, and result in increases in intracellular calcium following receptor activation (An, 1998, J. Cell Biochem. Supp 30-31:147-157). This biological response lends itself to a very efficient, high-throughput screen using a Fluorescence Imaging Plate Reader (FLIPR; Molecular Devices, Sunnyvale, Calif.). The FLIPR system is a real-time, cell-based assay system with continuous fluorescence detection using a cooled CCD camera. The FLIPR system was used to develop an Edg-1 receptor screen. Rat hepatoma cells stably expressing Edg-1/3i3 chimera or Edg-1 and Gqi were plated on 384-well plates and loaded with a calcium dye loading kit (Molecular Devices, Sunnyvale, Calif.) for 1 hour at room temperature. Cells were then placed on the FLIPR^384 (Molecular Devices, Sunnyvale, Calif.) and excited by an argon laser at 488 nm. The data for the entire 384-well plate was updated every second. An integrated robotic pipettor allowed for simultaneous compound addition into each individual well in the plate.

human Edg-1 receptors [2] = test: as above; assay type: cell-based; details: Edg-1 relative to other Edg receptors, inhibition (Table 2)
Description: as §1, §2

Edg-3 = molecular target: T1, Edg-3 (Homo sapiens, UniProt Q99500); test: Intracellular calcium (FLIPR) assay, HTC cells expressing Edg-3; assay type: cell-based; details: Table 2; S1P-stimulated
T1 construct: expressed in transfected cells; host or cells: HTC rat hepatoma cells
T1 sequence (Q99500 whole entry): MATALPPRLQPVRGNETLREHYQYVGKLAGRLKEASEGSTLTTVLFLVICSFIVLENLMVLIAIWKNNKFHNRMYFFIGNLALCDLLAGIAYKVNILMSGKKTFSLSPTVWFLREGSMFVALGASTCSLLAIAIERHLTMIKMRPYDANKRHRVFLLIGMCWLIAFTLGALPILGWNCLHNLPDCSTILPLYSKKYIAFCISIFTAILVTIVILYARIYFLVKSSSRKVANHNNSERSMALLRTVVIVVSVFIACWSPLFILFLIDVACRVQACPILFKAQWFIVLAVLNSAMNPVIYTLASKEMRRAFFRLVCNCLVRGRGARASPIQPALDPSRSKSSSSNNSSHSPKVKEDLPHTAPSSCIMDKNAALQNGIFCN

Edg-4 = Edg-4 (Homo sapiens, UniProt Q9HBW0); test: Intracellular calcium (FLIPR) assay, HTC cells expressing Edg-4; assay type: cell-based; details: Table 2; LPA-stimulated
Edg-4, sequence (Q9HBW0 1-340 limits assumed): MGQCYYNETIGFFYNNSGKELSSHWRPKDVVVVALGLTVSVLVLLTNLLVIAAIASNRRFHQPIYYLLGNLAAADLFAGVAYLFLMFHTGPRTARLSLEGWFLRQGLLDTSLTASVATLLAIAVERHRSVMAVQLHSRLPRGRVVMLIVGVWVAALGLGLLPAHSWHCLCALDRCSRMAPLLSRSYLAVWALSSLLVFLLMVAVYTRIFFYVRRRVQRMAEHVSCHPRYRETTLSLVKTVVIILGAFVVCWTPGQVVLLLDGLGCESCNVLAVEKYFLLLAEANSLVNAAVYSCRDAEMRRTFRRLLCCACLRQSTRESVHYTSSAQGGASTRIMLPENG

Edg-2 = molecular target: T2, Edg-2 (Homo sapiens, UniProt Q92633); test: Intracellular calcium (FLIPR) assay, HTC cells expressing Edg-2; assay type: cell-based; details: Table 2; LPA-stimulated
T2 construct: expressed in transfected cells; host or cells: HTC rat hepatoma cells
T2 sequence (Q92633 whole entry): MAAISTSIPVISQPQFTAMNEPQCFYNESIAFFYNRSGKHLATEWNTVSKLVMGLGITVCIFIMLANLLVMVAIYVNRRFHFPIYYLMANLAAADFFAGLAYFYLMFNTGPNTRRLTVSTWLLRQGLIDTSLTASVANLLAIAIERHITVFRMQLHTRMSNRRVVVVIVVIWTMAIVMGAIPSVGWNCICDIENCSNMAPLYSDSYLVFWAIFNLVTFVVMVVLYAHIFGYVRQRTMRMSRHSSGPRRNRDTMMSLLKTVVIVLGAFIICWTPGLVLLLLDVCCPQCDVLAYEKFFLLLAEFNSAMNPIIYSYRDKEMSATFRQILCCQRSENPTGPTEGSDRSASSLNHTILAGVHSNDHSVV

Edg-7 = molecular target: T3, Edg-7 (Homo sapiens, UniProt Q9UBY5); test: Intracellular calcium (FLIPR) assay, HTC cells expressing Edg-7; assay type: cell-based; details: Table 2; LPA-stimulated
T3 construct: expressed in transfected cells; host or cells: HTC rat hepatoma cells
T3 sequence (Q9UBY5 1-353): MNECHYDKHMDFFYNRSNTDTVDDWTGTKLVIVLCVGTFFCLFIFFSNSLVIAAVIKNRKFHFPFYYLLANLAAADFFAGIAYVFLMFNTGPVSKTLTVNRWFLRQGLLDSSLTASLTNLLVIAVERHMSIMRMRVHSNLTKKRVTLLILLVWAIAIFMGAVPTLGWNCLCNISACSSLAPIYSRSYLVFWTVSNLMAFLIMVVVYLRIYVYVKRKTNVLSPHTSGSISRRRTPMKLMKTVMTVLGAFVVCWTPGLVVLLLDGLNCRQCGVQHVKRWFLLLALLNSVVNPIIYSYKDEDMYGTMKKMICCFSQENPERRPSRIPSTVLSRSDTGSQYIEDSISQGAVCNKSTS

Edg-6 = molecular target: T4, Edg-6 (Homo sapiens, UniProt O95977); test: Intracellular calcium (FLIPR) assay, HTC cells expressing Edg-6; assay type: cell-based; details: Table 2; S1P-stimulated
T4 construct: expressed in transfected cells; host or cells: HTC rat hepatoma cells
T4 sequence (O95977 1-384): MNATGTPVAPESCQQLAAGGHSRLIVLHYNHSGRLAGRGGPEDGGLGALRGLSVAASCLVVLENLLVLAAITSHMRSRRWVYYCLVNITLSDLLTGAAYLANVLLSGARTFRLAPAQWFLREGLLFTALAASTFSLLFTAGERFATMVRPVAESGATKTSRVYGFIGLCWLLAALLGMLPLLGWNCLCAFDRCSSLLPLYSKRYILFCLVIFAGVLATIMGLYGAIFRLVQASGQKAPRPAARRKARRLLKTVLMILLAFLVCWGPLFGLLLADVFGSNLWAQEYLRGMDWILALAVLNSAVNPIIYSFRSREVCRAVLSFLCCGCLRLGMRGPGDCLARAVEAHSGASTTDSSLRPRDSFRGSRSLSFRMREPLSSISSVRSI

Edg-8 = molecular target: T5, Edg-8 (Homo sapiens, UniProt Q9H228); test: Intracellular calcium (FLIPR) assay, HTC cells expressing Edg-8; assay type: cell-based; details: Table 2; S1P-stimulated
T5 construct: expressed in transfected cells; host or cells: HTC rat hepatoma cells
T5 sequence (Q9H228 whole entry): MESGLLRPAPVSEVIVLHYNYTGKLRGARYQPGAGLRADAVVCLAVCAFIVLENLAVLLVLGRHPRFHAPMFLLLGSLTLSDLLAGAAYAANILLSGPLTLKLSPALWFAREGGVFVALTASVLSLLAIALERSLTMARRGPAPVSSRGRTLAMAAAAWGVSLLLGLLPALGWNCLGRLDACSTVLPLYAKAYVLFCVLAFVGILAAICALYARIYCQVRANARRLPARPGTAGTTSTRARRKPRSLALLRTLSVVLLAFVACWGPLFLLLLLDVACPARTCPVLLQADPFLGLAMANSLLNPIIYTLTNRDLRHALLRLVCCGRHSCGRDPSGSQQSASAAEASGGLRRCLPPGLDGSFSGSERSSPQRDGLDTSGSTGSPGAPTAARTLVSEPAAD

Edg-5 = molecular target: T6, Edg-5 (Homo sapiens, UniProt O95136); test: Intracellular calcium (FLIPR) assay, HTC cells expressing Edg-5; assay type: cell-based; details: Table 2; S1P-stimulated
T6 construct: expressed in transfected cells; host or cells: HTC rat hepatoma cells
T6 sequence (O95136 whole entry): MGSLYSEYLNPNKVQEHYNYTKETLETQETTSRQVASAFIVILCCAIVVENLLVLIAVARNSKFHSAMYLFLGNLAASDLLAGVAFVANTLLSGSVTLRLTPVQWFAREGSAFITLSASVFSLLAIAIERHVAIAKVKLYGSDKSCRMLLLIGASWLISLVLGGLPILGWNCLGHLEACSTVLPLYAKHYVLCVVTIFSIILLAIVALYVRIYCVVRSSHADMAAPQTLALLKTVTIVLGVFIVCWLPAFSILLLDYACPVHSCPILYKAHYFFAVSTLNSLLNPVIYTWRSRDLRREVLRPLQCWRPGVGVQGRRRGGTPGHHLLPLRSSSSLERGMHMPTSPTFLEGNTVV

[3] = tested on: human umbilical vein endothelial cells; test: Trans-matrigel chemotaxis / invasion assay with HUVECs (modified Boyden chamber); assay type: cell-based; details: HUVECs, trans-matrigel; FIG. 10
Description: In addition to Edg-1, other Edg receptors are also implicated in S1P stimulated chemotaxis, including Edg-3 and Edg-6. To assess the relative roles of the Edg-1 receptors and Edg-3 receptors in S1P stimulated chemotaxis, the ability of S1P to evoke trans-matrigel chemotaxis was tested in the presence of the Edg-1 antagonist 101, the Edg-3 antagonist 301, and the combination of 101 and 301. These experiments were performed according to the migration and invasion assay protocols described in Section 7.12, below. The Edg-3 antagonist 301, 3-Methyl-2-phenyl-quinoline-4-carboxylic acid 4-fluoro-benzylamide, is extensively described in co-pending U.S. application Ser. No. 10/390,426, which is incorporated by reference in its entirety. 301 is identified as compound 101 in U.S. application Ser. No. 10/390,426. Further, 301 is commercially available from Specs (The Netherlands) as compound number AK-968/12971392.
(§3) S1P is a strong chemoattractant to human PBMCs. […] Several migration assays were performed to test this hypothesis and to determine the effect of Edg-1 agonists and antagonists on S1P mediated chemotaxis. The migration assays were performed according to the protocol described in Section 7.12, below. The results of theses assays are presented in FIG. 6, FIG. 7, FIG. 8, FIG. 9 and FIG. 13.
(§4) Cells were plated in a 24 well format using Fluoroblok filter insert plates ([…] pore size) or Fluoroblok matrigel coated filter insert plates (Becton Dickinson, San Diego, Calif.). The assay was a modified Boyden Chamber assay in which a cell suspension (1×10^5 cells/ml) was prepared in serum free medium and added to the top chamber. LPA or S1P (doses ranged from 0.1-10 μM in serum free medium) was added to the bottom chamber. Following a 20-24 hour incubation period, the number of cells migrating or invading into the lower chamber was quantitated by transferring the filter insert into a fresh 24-well plate containing 4 μg/ml calcein AM (Molecular Probes, Sunnyvale, Calif.) in Hank's Balanced Salt Solution and staining for one hour.
(§5) Detection was via fluorescent readout at 450 nm excitation/530 nm emission using a fluorimeter. The level of fluorescence correlated with cell number.

[4] = tested on: human peripheral blood mononuclear cells; test: Migration of human peripheral blood mononuclear cells; assay type: cell-based; details: chemoattractant; FIG. 9, 13
Description: as §3, §4, §5
Human PBMCs are isolated from the buffy coats of healthy donors from the Stanford Blood Center. […]

mouse T cells = test: Mouse T cell migration in Transwell chambers with matrigel; assay type: cell-based; details: stimulant in bottom chamber; S1P at high concentrations; FIG. 14
Description: To further elucidate the role of the Edg-1 receptor in lymphocyte trafficking, migration of mouse T cells was analyzed in both in vitro and in vivo models. Migration of mouse T cells was first tested in Transwell chambers (Costar, Cambridge, Mass.) with polycarbonate fibers having a pore width of 8 μm, separated by a layer of matrigel. Stimulants S1P or exodus-2 were separately added to the bottom chamber. The effects of exodus-2 were tested alone, with S1P, and with S1P and Edg-1 antagonists 101 and 102.

murine CD4 T cells = test: Murine CD4 T cell chemotactic response to exodus-2; assay type: cell-based
Description: To assess this modulation and to test the effects of Edg-1 agonists and antagonists on this effect, murine CD4 T cells chemotactic responses to exodus-2 were tested in the presence of S1P and the Edg-1 agonist 104. These experiments were performed according to the migration and invasion assay protocols described in Section 7.12, below.
The effects of Edg-1 antagonists on S1P regulation of the chemotactic response to exodus-2 were also assessed. This experiment was performed according to the migration and invasion assay protocols described in Section 7.12, below. […] Thus, these Edg-1 antagonists can antagonize both aspects of the regulation by S1P of exodus-2-mediated chemotaxis.
as §4, §5

[5] = tested on: mouse splenic CD4 T cells; test: Lymphocyte migration in mouse dorsal air-pouch model; assay type: in vivo; details: CD4 T cells treated ex vivo, given intraperitoneally, lavage after 24 hours; S1P 1 μM; FIG. 15
Description: To test migration of mouse T cells in vivo, the ability of exodus-2 to attract mouse lymphocytes was assessed in the mouse dorsal air-pouch model. In these experiments, 0.5 ml 1 μM exodus-2 was introduced into a dorsal air-pouch produced by injecting 5 ml of filtered air subcutaneously. Mouse splenic CD4 T cells were fluorescently labeled with FM-DiI (Molecular Probes, Inc., Eugene, Oreg.), then treated with S1P (1 μM), 102, or 104. The treated CD4T cells were introduced into the peritoneal cavity. After 24 hours, lavage (1 ml) from the dorsal air pouch was assayed for fluorescence.

[6] = Table 1, Edg-1 modulators, read-out: IC50

For COc1cc2c(cc1OC)[C@H]1CN3CCc4cc(OC)c(OC)cc4[C@H]3CN1CC2 [Compound 103], the IC50 (human Edg-1 receptors [1]; Table 2, inhibition of S1P response, read-out: Edg 1 IC50) was 0.74 µM, the “Fold Selectivity” value (human Edg-1 receptors [2]) was >27.0 Fold and the IC50 (Edg-3) was > 20 µM. The IC50 (Edg-4) was > 20 µM, the IC50 (Edg-2) was > 20 µM and the IC50 (Edg-7) was > 20 µM. The IC50 (Edg-6) was > 20 µM, the IC50 (Edg-8) was > 20 µM and the IC50 (Edg-5) was > 20 µM.

With O=C(c1cccnc1)N1N=C(C(F)(F)F)CC1(O)c1ccc(Cl)cc1 (centres unmarked) [Compound 105] the IC50 (human Edg-1 receptors [1]; [6]) was 1.29 µM.

Molecule CCc1ccc(C2=NN(C(=O)c3cccnc3)C(O)(C(F)(F)F)C2)cc1 (centres unmarked) [Compound 106] has an IC50 (human Edg-1 receptors [1]; [6]) of 1.74 µM.

For O=C(c1cccnc1)N1N=C(c2ccccc2)CC1(O)C(F)(F)F (centres unmarked) [Compound 107], the IC50 (human Edg-1 receptors [1]; [6]) was 3.51 µM.

With Nc1ccc(C(=O)N2N=C(c3ccccc3)CC2(O)C(F)(F)F)cc1 (centres unmarked) [Compound 108] the IC50 (human Edg-1 receptors [1]; [6]) was 3.56 µM.

In the case of Nc1ccc(C(=O)N2N=C(c3ccc(F)cc3)CC2(O)C(F)(F)F)cc1 (centres unmarked) [Compound 109], the IC50 (human Edg-1 receptors [1]; [6]) is reported as 3.94 µM.

Nc1ccc(C(=O)N2N=C(C(F)(F)F)CC2(O)c2ccc(Br)cc2)cc1 (centres unmarked) [Compound 110] gave an IC50 (human Edg-1 receptors [1]; [6]) of 4.58 µM.

Molecule O=C(c1ccccc1)N1N=C(c2ccccc2)CC1(O)C(F)(F)F (centres unmarked) [Compound 111] has an IC50 (human Edg-1 receptors [1]; [6]) of 5.08 µM.

O=C(c1cccnc1)N1N=C(c2ccc(F)cc2)CC1(O)C(F)(F)F (centres unmarked) [Compound 112] was tested, and the IC50 (human Edg-1 receptors [1]; [6]) was 5.92 µM.

With O=C(c1ccccc1F)N1N=C(C(F)(F)F)CC1(O)c1ccc(Cl)cc1 (centres unmarked) [Compound 113] the IC50 (human Edg-1 receptors [1]; [6]) was 6.02 µM.

Cc1c(-c2ccccc2)nc2ccccc2c1C(=O)NCc1ccc(F)cc1 [Compound 301, 3-Methyl-2-phenyl-quinoline-4-carboxylic acid 4-fluoro-benzylamide, reference compound] was tested, and the “inhibition of S1P-stimulated chemotaxis” value [3] was “inhibit S1P-stimulated chemotaxis”.

With CCCCCCCCCCCCC/C=C/[C@@H](O)[C@@H](N)COP(=O)(O)O [Compound S1P, sphingosine-1-phosphate, reference compound] the “migration of human peripheral blood mononuclear cells” value [4] was “attracts human PMBCs in a dose dependent manner”, the “stimulation of T cell migration by stimulant alone” value (mouse T cells) was “do not stimulate T cell migration” and the “effect on chemotaxis of murine CD4 T cells to exodus-2” value (murine CD4 T cells; low and high concentrations desensitize, moderate stimulate, FIG. 11) was “bell-shaped dose dependant response curve”. For the same molecule, the “migration of treated lymphocytes to exodus-2 in dorsal air-pouch” value [5] was “desensitizes the lymphocytes to attraction by exodus-2”.

With CCCCCCCCc1ccc(CCC(N)(CO)CO)cc1 [FTY720, reference compound] the “effect on S1P-mediated desensitization of the chemotactic response to exodus-2” value (murine CD4 T cells; high concentrations of S1P, FIG. 12) was “reverse S1P-mediated desensitization” and the “effect on S1P-mediated stimulation of the chemotactic response to exodus-2” value (murine CD4 T cells; moderate concentrations of S1P, FIG. 12) was “inhibit S1P-mediated stimulation”.

B1: exodus-2: cytokine, chemoattractant for lymphocytes (protein, UniProt O00585 24-134, looked up)
C-C motif chemokine 21: SDGGAQDCCLKYSQRKIPAKVVRSYRKQEPSLGCSIPAILFLPRKRSQAELCADPKELWVQQLMQHLDKTPSPQKPAQGCRKDRGASKTGKKGKGSKGCKRTERSQTPKGP
B1 was tested, and the “stimulation of T cell migration by stimulant alone” value (mouse T cells) was “does stimulate T cell migration”.
